The conditions of data set [1]: at a neutral pH of 7; cited from earlier work.
Data set [2] in a line: Biodistribution of Gd-ASO after intratumoral injection, ICP-MS. In kind it is in vivo, 4T1 tumor bearing Balb/CJRj mice. On the procedure:
Methods: Gadolinium-labeled ASOs were synthesized as described in example 41. Spermine-Chol Gd-ASO complexes were prepared using the hydrophobic ionpairing method as described in example 43. The ASO complex was concentrated by freeze-drying, dissolved i in DMSO and embedded into NCCell (SuBen: GTH: EtOH: DMSO 55:20:2:15) according to example 45. The final Gd-ASO concentration in the NCCell was […]. Free Gd-ASO was prepared in PBS buffer at a concentration of 0.95 μg/μL.
On Day 0, 4T1 tumor bearing Balb/CJRj mice were, under anesthesia (isoflurane), injected intratumorally with 50 μL of NCCell or 42 μL of free Gd-ASO in PBS, with a total concentration of 40 μg Gd-ASO per injection. […] Free ASO was injected using a 23G needle.
Blood was collected from different groups 10 minutes, 1 hour, 4 hours, 24 hours, 72 hours and 5 days after treatment. Organs and other fluids (liver, spleen, lungs, kidneys) were harvested 24 hours and 5 days after treatment. For sample processing, full organ weight was recorded, as well as the weight of the tissue used, and was further processed for ICP-MS measurements. To prepare tissue for ICP-MS analysis, 50-100 mg of organs or NCCell were digested in 500 μL HNO3, (69%) 50 μL HCl (37%) and 300 μL H2O2 (35%) at 65° C. overnight followed by further dilutions in water and 2% HCl and subjected to ICP-MS analysis using Ir (0.5 ppb) as internal standard.

The values below come from patent US20250332283A1, “NUCLEOTIDE DELIVERY FROM INJECTABLE HYDROPHOBIC BIOMATERIAL” (DANMARKS TEKNISKE UNIVERSITET, priority 2022, published 2025).

“Also recorded” adds a separate entry of the source. {5AmMC6} = amino-modifier C6 linker (IDT), here bearing the Gd-DOTA label; l = locked nucleic acid (LNA); d = 2'-deoxy (DNA)

For orientation: logP means a log measure of how a compound divides between an organic and an aqueous phase. Consider `CCN(CCO)CCCOc1ccc2c(Nc3cc(CC(=O)Nc4cccc(F)c4)[nH]n3)ncnc2c1` [AZD281], for which the lipophilicity (logP) in data set [1] is given as 2.
Regarding “free ASO: Gd-DOTA labelled ASO /5AmMC6/+G*+T*+C*A*C*A*A*T*G*C*A*T*T*+C*+T*+A in PBS (DNA GTCACAATGCATTCTA; sugars from the 5' end l3 d10 l3, all phosphorothioate, 5' {5AmMC6}, methylation of C not given here; Gd-DOTA attached via 5' amino linker)”, in data set [2] (24 and 120 hours after intratumoral injection of 40 μg Gd-ASO), the “Gd-ASO concentration in liver, spleen, kidney and lung” value is “highest concentration of free ASO was observed in the lungs, followed by the liver and spleen”. Further, the Gd-ASO in blood result in data set [2] (10 minutes to 5 days after intratumoral injection, listed as free ASOs) is recorded as “could be detected 10 minutes after injection; also recorded: no detectable Gd signal in the blood at later timepoints”.
